Structures are written as SMILES.

This is an account of results in patent US10711006B2, “Selective Bruton's tyrosine kinase inhibitor and use thereof” (HANGZHOU HERTZ PHARMACEUTICAL CO., LTD., priority 2016, dated 2020).

The target of data set [1] is BTK Kinase (Homo sapiens (Human), UniProt Q06187). Kind of data set: In-vitro Btk kinase inhibitory activity assay. Format: biochemical. The method, then:
In-Vitro Btk Kinase Inhibitory Activity Assay for Compounds of the Present Invention:
10 μL of the 50× drug stock solution was added to a 96-well plate and then 90 μL of a 1× Kinase Buffer was added and the 96-well plate was shaken for 10 minutes on a shaker. From each well of the 96-well plate, 5 μL of the drug solution was taken and then transferred to a 384-well plate which was provided with 2 duplicate wells.
Preparation of a 2.5× Kinase Buffer: an enzyme was added to the 1× kinase base buffer.
Prepare a 2.5× oligopeptide solution: FAM-labeled oligopeptide and ATP were added to the 1× kinase base buffer.
10 μL of the 2.5× Kinase Buffer was added to the 384-well plate loaded with 5 μL of the drug solution and incubation was then carried out for 10 minutes at room temperature. 10 μL of the 2.5× oligopeptide solution was added to the 384-well plate and incubation was then carried out for 1 hour at 28° C. The reaction was stopped by adding 25 μL of a stop buffer. The readings were recorded and the inhibition rate of the compound on the enzyme was calculated. The IC50 of BTK kinase was calculated by fitting.

Data set [2] is described as follows: Oral pharmacokinetic experiment in SD rats. Format: in vivo. Conditions: mean n = 3. The method, then: SD rats were used as experimental animals and were subjected to intragastric administration in a dose of 10 mg/kg and tail-vein intravenous injection in a dose of 2 mg/kg. The tail-vein blood sampling time points in the intragastric administration were 0.17, 0.33, 0.5, 1, 1.5, 2, 4, 6, 8, 12, and 24 hours; the blood sampling time points in the intravenous administration were 0.05, 0.1, 0.17, 0.5, 1, 2, 4, 6, 8, 12, and 24 hours. 0.3 ml of whole blood was taken, and 0.1 ml of plasma after centrifugation was taken and analyzed by LC-MS.

Data set [3] has as its system Mino subcutaneous xenograft tumor. The experiment in a line: In-vivo pharmacodynamic study on Mino subcutaneous xenograft tumor models. Conditions: CB17 SCID mice, intragastric, twice a day. The method, then: In CB17 SCID mice, 0.2 mL of cell suspension containing 5×10^6 Mino cells was subcutaneously inoculated into the right back of each mouse, and when the mean tumor volume reaches approximately 139.94 mm3 (day 26 after inoculation), group administration was started (intragastric administration, twice a day, 14 days in total). Animals were monitored daily for health and mortality, and tumor diameters were measured twice a week using vernier calipers to see if tumor growth could be inhibited, delayed, or cured.

The subject of data set [4] is arthritis induced by anti-collagen antibodies and lipopolysaccharides. The experiment in a line: Rheumatoid arthritis model induced by anti-collagen antibodies and lipopolysaccharides. In kind it is in vivo, Balb/c mice. Conditions: for level of IL-1β in serum (in words): 10 mg/kg orally once a day; for level of IL-1β in serum (in words) / inflammatory cell infiltration, synovial hyperplasia, inflammatory granulation tissue formation, necrotic tissue: versus model group; for IL-1β: serum on Day 13, 10 mg/kg orally once a day Day 2 to Day 12; for inflammatory cell infiltration, synovial hyperplasia, inflammatory granulation tissue formation, necrotic tissue: tissue samples after treatment. The method, then: In Balb/c mice, arthritis was induced by administration of anti-collagen antibodies and lipopolysaccharides (Nandakumar et al., Am. J. Pathol. 2003, 163: 1827-1837).
The specific method was as follows: On Day 0, female Balb/c mice were intravenously injected with anti-type II collagen ChemicomAb mixture in a dose of 100 mg/kg, and on Day 1, lipopolysaccharide was intraperitoneally injected in a dose of 1.25 mg/kg. From Day 2 to Day 12, Compounds 15a, 17a, 24a and 24e were orally administered once a day in a dose of 10 mg/kg. On Day 13 after abdominal anesthesia, […] of blood was taken from the femoral artery and centrifuged at 3000 r/min for 20 minutes, serum was taken to detect IL-1β with a test kit, and related tissue samples were observed.

The subject of data set [5] is human lung cancer cell (A549). Kind of data set: In-vitro tumor cell proliferation inhibition (CCK-8), A549. Conditions: A549, 72 h, read-out: Tumor cell proliferation inhibitory activity (IC50, μM) A549.
The subject of data set [6] is human mantle cell lymphoma (MINO). Kind of data set: In-vitro tumor cell proliferation inhibition (CCK-8), MINO. Conditions: 72 h, read-out: Tumor cell proliferation inhibitory activity (IC50, μM) MINO.
Experimental: (§11) The in-vitro antitumor activity assay was carried out on the synthesized compound by using different solid tumors and leukemia cell lines:
(§12) Cell lines: human lung cancer cell (A549), human mantle cell lymphoma (MINO), diffuse giant B-cell lymphoma (OCI-LY10), and human diffuse large B lymphoma (TMD-8).
(§13) Preparation method of the drug: the drug was dissolved in DMSO to make a 10 mM stock solution, and then the stock solution was diluted in a certain ratio to obtain 5 different concentrations (test concentration 100×). In-vitro culture of tumor cells:
(§14) The tumor cells A549, MINO, OCI-LY10, and TMD-8 were seeded in a 96-well plate at 4000 cells/200 μL/well and then incubated overnight at 37° C. in a 5% CO2 cell culture incubator. 2 μL of the compound was added to each well to final concentrations of 50 μM, 10 μM, 2 μM, 0.4 μM, and 0.08 μM and then incubated for 72 hours at 37° C. in a 5% CO2 cell incubator, with DMSO (2%) as a control group. […] Wells loaded with the corresponding amount of cell culture fluid the and CCK-8 solution but no cells were considered as blank controls. The absorbance (OD value) was measured at 450 nm using a microplate reader, and the obtained data was used to calculate IC50.
Data set [7] relates to human diffuse large B lymphoma (TMD-8). Kind of data set: In-vitro tumor cell proliferation inhibition (CCK-8), TMD-8. Conditions: TMD8, 72 h, read-out: Tumor cell proliferation inhibitory activity (IC50, nM) TMD-8.
Experimental: as §11, §12, §13, §14
The subject of data set [8] is diffuse giant B-cell lymphoma (OCI-LY10). Kind of data set: In-vitro tumor cell proliferation inhibition (CCK-8), OCI-LY10. Conditions: Homo sapiens, OCI-Ly10, 72 h, read-out: Tumor cell proliferation inhibitory activity (IC50, nM) OCI-LY10.
In data set [9] the target is hERG potassium channel (Homo sapiens (Human), UniProt Q12809). Kind of data set: hERG potassium channel inhibitory activity, manual patch clamp in CHO cells. Format: cell-based. Conditions: CHO cells stably expressing hERG, whole-cell patch clamp. The method, then: The cells used in this experiment were CHO cell lines transfected with HergCdna and stably expressing Herg channels (supplied by Sophion Bioscience, Denmark). The cells were cultured in a medium containing the following components (all from Invitrogen): Ham's F12 medium, 10% (v/v) inactivated fetal bovine serum, 100 μg/ml hygromycin B, 100 μg/ml Geneticin. […] 24 to 48 hours before an electrophysiological experiment, CHO Herg cells were transferred to circular slides placed in the culture dishes and grow with the same culture liquid under the same culture conditions as above. The density of CHO Herg cells on each circular slide was required to reach such a value that most cells were independent and stand alone.
2. Treatment and Dilution of a Compound
Before the test, the compound was first diluted with DMSO at gradient to make stock solutions with concentrations of 10, 3, 1, 0.3 and 0.1 Mm and the stock solutions were then diluted with extracellular fluid to a final Mm test concentration. Except that the DMSO concentration in the 30 Mm compound test solution was 0.3%, the final concentration of DMSO in each of the compound solutions with other concentrations was 0.1%. The test concentration of a positive control Cisapridewas 0.1 Mm. All compound solutions were conventionally sonicated and shaken for 5 to 10 minutes to ensure complete dissolution of the compound.
3. Electrophysiological Recording System and Data Analysis
This experiment uses a manual patch clamp system (HEKA EPC-10 signal amplifier and digital conversion system, purchased from HEKA Electronics, Germany) for the recording of whole cell currents. The circular slides with CHO Herg cells growing on the surfaces were placed in an electrophysiological recording slot under an inverted microscope. The extracellular fluid was used for continuous perfusion in the recording slot (approximately lml per minute). The experimental procedure uses a conventional whole-cell patch clamp current recording technique. Unless otherwise stated, the experiment was carried out at regular room temperature ([…]). The cells were clamped at a voltage of −80 Mv. The cell clamp voltage was depolarized to +20 Mv to activate the Herg potassium channel, and 5 seconds later, it was clamped to −50 Mv to eliminate inactivation and generate tail current. The peak of the tail current was used as the value of the Herg current. After the hERG potassium current recorded in the above step was stabilized under the continuous extracellular fluid perfusion in the recording slot, the drug to be tested can be superimposed to the perfusion until the inhibitory effect of the drug on the hERG current reaches a steady state. Generally, the criterion for determine whether or not the stable state was reached was that the recent three consecutive current recording lines were coincident. After the steady state was reached, extracellular fluid perfusion was carried out for flushing until the hERG current returns to the magnitude before the drug was added. One cell may be used for testing one or more drugs, or multiple concentrations of the same drug, and flushing with extracellular fluid was carried out between tests of different drugs. Cisapride (purchased from Sigma) was used in the experiment as a positive control to ensure that the cells used were of normal quality. The test data was analyzed by data analysis software provided by HEKA Patchmaster, Microsoft Excel and Graphpad Prism.
(Block of hERG is tested as a sign of cardiac risk.)

In data set [10] the target is ITK (Homo sapiens (Human), UniProt Q08881). Kind of data set: Kinase selectivity experiment, ITK. Format: biochemical. Conditions: read-out: Inhibitory activity against ITK (IC50). The method, then: (§1) A 1× kinase base buffer and a reaction stop buffer for respective kinases in the experiment were prepared as required.
(§2) Preparation of Compounds to be Tested:
(§3) 2) diluting each compound at a 5-fold concentration gradient in a 96-well plate to 6 to 7 concentrations and ensuring that the drug volume in each well was 10 μl; and at the same time adding 100 μl of DMSO to prepare a blank control group and also preparing a negative control group without the enzyme substrate; and
(§4) 3) preparing another 96-well plate, adding 10 μl of each of the above compounds to 90 μl of the 1× kinase base buffer and mixing for 10 minutes to be uniform.
(§5) Preparation of the Plate to be Tested:
(§6) 1) 5 μl of the mixed solution prepared as above in the 96-well plate was taken and transferred to a 384-well plate, with two replicate wells for each compound.
(§7) 1) Preparing a 2.5× kinase solution and adding a corresponding 1× kinase base buffer;
(§8) 2) preparing a 2.5× polypeptide solution and adding FAM-labeled polypeptide and ATP in the 1× kinase base buffer; and
(§9) 3) adding 10 μl of 2.5× kinase solution to a 384-well plate to be tested, placing in a room-temperature environment for 10 minutes, and then adding 10 μl of the 2.5× polypeptide solution, reacting at 28° C. for 1 hour, and then adding 25 μl of a reaction stop buffer.
(§10) The Caliper program reads the plate and uses the data to obtain the IC50 values of the corresponding compounds against kinases.

Data set [11] concerns the target BLK (Homo sapiens (Human), UniProt P51451). Kind of data set: Kinase selectivity experiment, BLK. Conditions: read-out: Inhibitory activity against BLK (IC50). In kind it is biochemical. The method, then:
as §1, §2, §3, §4, §5, §6, §7, §8, §9, §10

Data set [12] concerns the target CSK (Homo sapiens (Human), UniProt P41240). Kind of data set: Kinase selectivity experiment, CSK. In kind it is biochemical. Conditions: read-out: Inhibitory activity against CSK (IC50). The method, then:
as §1, §2, §3, §4, §5, §6, §7, §8, §9, §10

The target of data set [13] is FGR (Homo sapiens (Human), UniProt P09769). Kind of data set: Kinase selectivity experiment, FGR. In kind it is biochemical. Conditions: read-out: Inhibitory activity against FGR (IC50). The method, then:
as §1, §2, §3, §4, §5, §6, §7, §8, §9, §10

Data set [14] concerns the target HCK (Homo sapiens (Human), UniProt P08631). Kind of data set: Kinase selectivity experiment, HCK. Format: biochemical. Conditions: read-out: Inhibitory activity against HCK (IC50). The method, then: as §1, §2, §3, §4, §5, §6, §7, §8, §9, §10
The target in data set [15] is JAK3 (Homo sapiens (Human), UniProt P52333). The experiment in a line: Kinase selectivity experiment, JAK3. Format: biochemical. Conditions: read-out: Inhibitory activity against JAK3 (IC50). The method, then: as §1, §2, §3, §4, §5, §6, §7, §8, §9, §10
The target in data set [16] is FLT3 (Homo sapiens (Human), UniProt P36888). Kind of data set: Kinase selectivity experiment, FLT3. In kind it is biochemical. Conditions: read-out: Inhibitory activity against FLT3 (IC50). The method, then:
as §1, §2, §3, §4, §5, §6, §7, §8, §9, §10

Setting [17] is: rat, plasma, oral (intragastric) 10 mg/kg.

FGR, sequence (P09769 whole entry, species assumed): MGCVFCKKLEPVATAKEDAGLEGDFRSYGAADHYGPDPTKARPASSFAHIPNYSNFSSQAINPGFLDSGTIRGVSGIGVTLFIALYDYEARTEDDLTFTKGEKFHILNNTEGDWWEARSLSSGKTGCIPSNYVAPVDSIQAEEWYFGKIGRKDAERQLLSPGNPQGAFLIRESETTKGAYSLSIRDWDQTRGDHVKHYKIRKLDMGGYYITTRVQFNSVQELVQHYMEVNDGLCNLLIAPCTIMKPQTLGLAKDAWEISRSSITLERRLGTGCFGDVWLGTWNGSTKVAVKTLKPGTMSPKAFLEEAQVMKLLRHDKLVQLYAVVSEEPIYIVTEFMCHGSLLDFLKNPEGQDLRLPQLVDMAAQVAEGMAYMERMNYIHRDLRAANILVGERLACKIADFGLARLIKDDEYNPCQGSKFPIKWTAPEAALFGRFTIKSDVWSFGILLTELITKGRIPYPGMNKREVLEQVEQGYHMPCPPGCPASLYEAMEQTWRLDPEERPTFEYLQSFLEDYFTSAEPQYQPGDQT
HCK, sequence (P08631 whole entry, species assumed): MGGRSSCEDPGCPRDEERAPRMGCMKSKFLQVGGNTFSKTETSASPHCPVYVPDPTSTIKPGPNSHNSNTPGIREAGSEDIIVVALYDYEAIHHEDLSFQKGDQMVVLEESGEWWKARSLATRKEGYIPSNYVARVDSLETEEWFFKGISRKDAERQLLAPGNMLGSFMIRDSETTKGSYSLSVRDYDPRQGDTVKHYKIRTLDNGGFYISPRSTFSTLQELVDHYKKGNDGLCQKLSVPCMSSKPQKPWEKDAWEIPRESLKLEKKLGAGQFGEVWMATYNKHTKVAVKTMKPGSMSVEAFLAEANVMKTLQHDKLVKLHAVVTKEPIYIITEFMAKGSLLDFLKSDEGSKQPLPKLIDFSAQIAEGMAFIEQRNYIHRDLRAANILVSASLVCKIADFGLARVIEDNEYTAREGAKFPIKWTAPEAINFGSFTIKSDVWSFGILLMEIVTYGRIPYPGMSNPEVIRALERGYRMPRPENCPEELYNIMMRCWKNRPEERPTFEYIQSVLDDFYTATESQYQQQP
CSK, sequence (P41240 whole entry, species assumed): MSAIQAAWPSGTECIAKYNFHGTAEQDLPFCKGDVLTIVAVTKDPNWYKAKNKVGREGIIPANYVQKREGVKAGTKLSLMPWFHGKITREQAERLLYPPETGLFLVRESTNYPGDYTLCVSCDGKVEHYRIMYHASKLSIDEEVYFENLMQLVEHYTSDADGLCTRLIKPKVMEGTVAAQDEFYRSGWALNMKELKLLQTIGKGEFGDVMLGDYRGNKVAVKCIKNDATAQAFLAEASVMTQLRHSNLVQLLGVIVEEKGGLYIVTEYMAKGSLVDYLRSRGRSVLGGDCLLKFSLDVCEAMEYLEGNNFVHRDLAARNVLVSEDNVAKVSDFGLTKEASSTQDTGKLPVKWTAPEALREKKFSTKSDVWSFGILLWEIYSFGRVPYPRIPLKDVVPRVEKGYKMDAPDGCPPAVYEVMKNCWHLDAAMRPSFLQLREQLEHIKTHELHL
ITK, sequence (Q08881 whole entry, species assumed): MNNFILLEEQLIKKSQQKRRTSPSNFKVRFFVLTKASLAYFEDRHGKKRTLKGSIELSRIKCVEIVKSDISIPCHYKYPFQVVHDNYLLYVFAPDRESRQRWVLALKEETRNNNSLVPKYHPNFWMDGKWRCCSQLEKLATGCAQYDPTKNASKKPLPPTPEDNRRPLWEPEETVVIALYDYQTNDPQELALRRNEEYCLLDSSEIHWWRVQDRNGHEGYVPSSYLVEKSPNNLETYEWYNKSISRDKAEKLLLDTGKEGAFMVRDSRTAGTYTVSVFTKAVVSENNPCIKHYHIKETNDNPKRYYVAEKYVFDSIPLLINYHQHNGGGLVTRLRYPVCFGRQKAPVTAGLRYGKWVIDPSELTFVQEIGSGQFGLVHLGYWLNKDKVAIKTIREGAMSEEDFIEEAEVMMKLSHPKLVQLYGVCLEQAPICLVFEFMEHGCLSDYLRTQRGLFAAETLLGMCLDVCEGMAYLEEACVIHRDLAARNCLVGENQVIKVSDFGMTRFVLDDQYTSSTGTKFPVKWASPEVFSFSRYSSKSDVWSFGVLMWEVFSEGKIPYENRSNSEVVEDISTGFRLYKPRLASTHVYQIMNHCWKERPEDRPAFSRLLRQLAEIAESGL
FLT3, sequence (P36888 27-993, species assumed): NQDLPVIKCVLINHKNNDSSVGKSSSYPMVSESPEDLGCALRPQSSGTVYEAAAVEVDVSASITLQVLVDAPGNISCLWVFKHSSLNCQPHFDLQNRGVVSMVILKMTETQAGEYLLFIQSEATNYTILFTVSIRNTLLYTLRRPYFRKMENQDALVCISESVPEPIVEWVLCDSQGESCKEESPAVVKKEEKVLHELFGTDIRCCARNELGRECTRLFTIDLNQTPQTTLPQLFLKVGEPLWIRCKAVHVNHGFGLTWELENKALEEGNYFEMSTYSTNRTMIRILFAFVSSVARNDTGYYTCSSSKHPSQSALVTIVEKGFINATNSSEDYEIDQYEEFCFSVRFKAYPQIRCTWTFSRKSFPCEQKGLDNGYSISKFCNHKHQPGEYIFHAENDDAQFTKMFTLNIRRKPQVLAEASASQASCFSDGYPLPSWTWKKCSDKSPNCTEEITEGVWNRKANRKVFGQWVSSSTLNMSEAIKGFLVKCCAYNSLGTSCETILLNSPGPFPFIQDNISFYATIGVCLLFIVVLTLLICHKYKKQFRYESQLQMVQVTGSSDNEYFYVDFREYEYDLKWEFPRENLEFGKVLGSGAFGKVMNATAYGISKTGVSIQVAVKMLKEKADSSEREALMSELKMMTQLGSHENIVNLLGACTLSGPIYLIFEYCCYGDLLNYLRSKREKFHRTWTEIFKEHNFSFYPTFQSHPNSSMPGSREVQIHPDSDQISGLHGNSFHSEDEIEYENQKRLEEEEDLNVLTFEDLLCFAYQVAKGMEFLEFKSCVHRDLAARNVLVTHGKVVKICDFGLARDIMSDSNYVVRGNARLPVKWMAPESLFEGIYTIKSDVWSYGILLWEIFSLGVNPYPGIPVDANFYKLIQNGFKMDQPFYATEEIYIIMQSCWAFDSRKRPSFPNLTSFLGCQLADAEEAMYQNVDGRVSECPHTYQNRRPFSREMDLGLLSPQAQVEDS
BTK Kinase, sequence (Q06187 whole entry): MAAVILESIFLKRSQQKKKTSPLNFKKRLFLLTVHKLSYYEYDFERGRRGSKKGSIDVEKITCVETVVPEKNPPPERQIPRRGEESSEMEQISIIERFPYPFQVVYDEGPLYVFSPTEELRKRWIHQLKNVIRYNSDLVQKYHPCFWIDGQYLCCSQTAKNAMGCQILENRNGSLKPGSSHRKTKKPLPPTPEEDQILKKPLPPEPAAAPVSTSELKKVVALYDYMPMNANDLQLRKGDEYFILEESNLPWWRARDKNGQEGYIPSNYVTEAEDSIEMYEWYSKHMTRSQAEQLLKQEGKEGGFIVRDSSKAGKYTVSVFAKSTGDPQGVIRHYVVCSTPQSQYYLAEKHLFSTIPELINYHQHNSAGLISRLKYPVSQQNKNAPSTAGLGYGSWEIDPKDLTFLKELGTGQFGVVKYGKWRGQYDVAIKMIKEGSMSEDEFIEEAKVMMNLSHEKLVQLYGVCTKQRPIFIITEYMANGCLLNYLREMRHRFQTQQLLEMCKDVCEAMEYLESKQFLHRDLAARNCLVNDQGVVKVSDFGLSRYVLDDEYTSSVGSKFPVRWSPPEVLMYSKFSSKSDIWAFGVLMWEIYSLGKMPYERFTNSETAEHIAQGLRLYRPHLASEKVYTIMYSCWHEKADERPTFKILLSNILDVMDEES
BLK, sequence (P51451 whole entry, species assumed): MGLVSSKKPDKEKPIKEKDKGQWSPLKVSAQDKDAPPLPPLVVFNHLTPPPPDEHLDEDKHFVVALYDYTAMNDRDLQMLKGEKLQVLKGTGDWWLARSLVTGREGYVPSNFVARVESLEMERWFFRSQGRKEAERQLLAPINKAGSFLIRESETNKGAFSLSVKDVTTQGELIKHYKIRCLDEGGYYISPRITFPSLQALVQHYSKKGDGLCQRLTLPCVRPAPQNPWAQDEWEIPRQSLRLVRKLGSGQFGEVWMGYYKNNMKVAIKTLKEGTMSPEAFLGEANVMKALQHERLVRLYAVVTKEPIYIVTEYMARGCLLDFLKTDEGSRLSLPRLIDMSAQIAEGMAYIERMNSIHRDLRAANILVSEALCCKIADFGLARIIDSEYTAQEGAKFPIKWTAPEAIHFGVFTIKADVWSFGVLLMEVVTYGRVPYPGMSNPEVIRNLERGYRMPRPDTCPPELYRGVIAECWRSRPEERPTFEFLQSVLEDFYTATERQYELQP

Usually bioavailability stands for the share of a dose that reaches the circulation, judged against a reference dose that is usually intravenous. A low value points to poor availability. One may read the Cmax as the peak of the concentration-time curve. As a reminder, the Tmax is the time from dosing to the highest level. As a reminder, the half-life is the time needed for the level to fall by half in the phase considered. Low readings indicate fast loss, high ones slow loss. Regarding `C=CC(=O)N1CC[C@@H](n2nc(-c3ccc(Oc4cccc(F)c4F)nc3F)c3c(N)ncnc32)C1` [Compound 24e, (R)-1-(3-(4-amino-3-(6-(2,3-difluorophenoxy)-2-fluoropyridin-3-yl)-1H-pyrazolo[3,4-d]pyrimidin-1-yl)pyrrolidin-1-yl)prop-2-en-1-one], in data set [1], the IC50 stood at 0.0018 µM. Also, in data set [2] (oral (intragastric) 10 mg/kg), the AUC0-C(ng/h/mL) stood at 1620 ng·h/mL and the AUC0-t (ng/h/mL) is 1600 ng·h/mL. This compound also had a bioavailability in [2] (rat, plasma, oral 10 mg/kg vs intravenous 2 mg/kg) of 46.1%. Moreover, in [2] (setting [17]), the Cmax came to 1440 ng/mL, the Tmax amounted to 0.25 h and the half-life is 3.57 h. Further, in data set [3], the “TGI*(14 days) (%) calculated on the basis of tumor volume” value is 68.04% and the “TGI**(14 days) (%) calculated on the basis of tumor weight” value is 62.16%. In [4], the “level of IL-1β in serum (in words)” value is on record as “significantly reduce”; the “IL-1β” value stood at 20.45 ± 5.1 ng/L; the “inflammatory cell infiltration, synovial hyperplasia, inflammatory granulation tissue formation, necrotic tissue” value is on record as “significantly improved”. Besides, in [5], the IC50 was 1.93 µM. The IC50 in [6] amounted to 8.98 µM. Moreover, in [7], the IC50 stood at 7.13 nM. The IC50 in data set [8] was 4.02 nM.

For `C=CC(=O)N1CCC[C@@H](n2nc(-c3ccc(Oc4ccccc4)nc3F)c3c(N)ncnc32)C1` [Compound 17a, (R)-1-(3-(4-amino-3-(2-fluoro-6-phenoxypyridin-3-yl)-1H-pyrazolo[3,4-d]pyrimidin-1-yl)piperidin-1-yl)prop-2-en-1-one], the IC50 in data set [9] was 7.8 µM; in [10] it was over 1 µM; in data set [11], 0.011 µM; in [12] it was over 1 µM; in data set [13] it was over 1 µM; in [14], over 1 µM. The IC50 was over 1 µM in [15]; over 1 µM in data set [16]; 1.67 µM in [5]; 8.62 µM in [6]; 5.57 nM in data set [7]; 1.41 nM in data set [8]. Moreover, the “TGI*(14 days) (%) calculated on the basis of tumor volume” value in data set [3] is 82.54%. Also, the “TGI**(14 days) (%) calculated on the basis of tumor weight” value in data set [3] was 74.05%. Further, the “level of IL-1β in serum (in words)” value in [4] is recorded as “significantly reduce”. For the same compound, the “IL-1β” value in [4] was determined as 17.25 ± 3.9 ng/L. Moreover, the “inflammatory cell infiltration, synovial hyperplasia, inflammatory granulation tissue formation, necrotic tissue” value in data set [4] is recorded as “significantly improved”.
